Data reported in patent US8658604B2, “Template-fixed beta-hairpin peptidomimetics with protease inhibitory activity” (Polyphor Ltd, priority 2005, dated 2014).
Like-named read-outs stand apart in the source and are kept apart here. Where a SMILES comes first, the peptide text is derived from it.

Legend:
[1] = test system: HELA cells (Acc57); test: Cytotoxicity assay (MTT reduction), HELA cells; type: cell-based; settings: Hela cells
How it was run: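 HeLa cells were grown for 24 h, then exposed to peptides at 12.5, 25 and 50 μM in triplicate for 48 h at 37 °C. MTT reduction was read at 595 nm and growth % calculated relative to time-zero wells. LC50 interpolated by linear trend at −50% growth, GI50 at 50%.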

[2] = test system: human red blood cells (hRBC); test: Hemolysis
[3] = molecular target: Trypsin, from human pancreas (Homo sapiens, UniProt P07477); test: Enzymatic assay, trypsin; settings: at 100 μM
[4] = molecular target: T1, Chymase, from human skin (Homo sapiens, UniProt P23946); test: Enzymatic assay, chymase
T1 sequence (P23946 22-247): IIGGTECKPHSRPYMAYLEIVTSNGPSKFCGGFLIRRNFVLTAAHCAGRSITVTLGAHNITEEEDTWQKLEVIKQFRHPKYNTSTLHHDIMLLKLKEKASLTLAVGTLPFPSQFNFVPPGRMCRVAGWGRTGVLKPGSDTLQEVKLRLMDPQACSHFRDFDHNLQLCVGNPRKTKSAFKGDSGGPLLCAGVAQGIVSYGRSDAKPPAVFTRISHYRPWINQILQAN

[5] = molecular target: T2, Elastase from human neutrophils (Homo sapiens, UniProt P08246); test: Enzymatic assay, elastase
T2 sequence (P08246 30-267): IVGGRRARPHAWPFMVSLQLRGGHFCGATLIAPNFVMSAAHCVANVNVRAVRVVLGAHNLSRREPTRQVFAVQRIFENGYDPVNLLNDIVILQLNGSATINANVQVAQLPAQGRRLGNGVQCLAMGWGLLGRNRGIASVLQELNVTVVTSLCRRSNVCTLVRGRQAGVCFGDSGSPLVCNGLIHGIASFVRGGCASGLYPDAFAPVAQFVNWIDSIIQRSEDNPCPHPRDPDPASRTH

[6] = molecular target: Urokinase from human urine (Homo sapiens, UniProt P00749); test: Enzymatic assay, urokinase
[7] = molecular target: T3, CathepsinG, from human neutrophils (Homo sapiens, UniProt P08311); test: Enzymatic assay, cathepsin G
T3 sequence (P08311 21-244): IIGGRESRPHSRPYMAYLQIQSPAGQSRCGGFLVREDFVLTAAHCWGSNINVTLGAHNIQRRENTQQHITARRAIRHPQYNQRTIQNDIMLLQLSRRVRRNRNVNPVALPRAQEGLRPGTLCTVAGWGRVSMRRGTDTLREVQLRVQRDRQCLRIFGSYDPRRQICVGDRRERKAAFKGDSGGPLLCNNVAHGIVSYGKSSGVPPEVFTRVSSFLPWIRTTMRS

[8] = molecular target: Chymotrypsin, from human pancreas (Homo sapiens, UniProt P17538); test: Enzymatic assay, chymotrypsin; settings: at 100 μM
Chain of Chymotrypsin, from human pancreas (P17538 19-263): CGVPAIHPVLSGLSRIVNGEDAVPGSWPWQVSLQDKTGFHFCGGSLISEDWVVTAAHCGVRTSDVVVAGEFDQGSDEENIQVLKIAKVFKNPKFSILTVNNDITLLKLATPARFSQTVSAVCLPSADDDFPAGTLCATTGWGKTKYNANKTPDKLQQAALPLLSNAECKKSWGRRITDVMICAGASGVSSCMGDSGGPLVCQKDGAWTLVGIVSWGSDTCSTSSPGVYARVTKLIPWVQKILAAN

[9] = molecular target: Thrombin, from Human Plasma (Homo sapiens, UniProt P00734); test: Enzymatic assay, thrombin
[10] = test system: Tryptase, from human lung; test: Enzymatic assay, tryptase; settings: at 100 μM
[11] = molecular target: Coagulation Factor Xa, from uman plasma (Homo sapiens, UniProt P00742); test: Enzymatic assay, coagulation factor Xa
Chain of Coagulation Factor Xa, from uman plasma (P00742 235-488 limits assumed): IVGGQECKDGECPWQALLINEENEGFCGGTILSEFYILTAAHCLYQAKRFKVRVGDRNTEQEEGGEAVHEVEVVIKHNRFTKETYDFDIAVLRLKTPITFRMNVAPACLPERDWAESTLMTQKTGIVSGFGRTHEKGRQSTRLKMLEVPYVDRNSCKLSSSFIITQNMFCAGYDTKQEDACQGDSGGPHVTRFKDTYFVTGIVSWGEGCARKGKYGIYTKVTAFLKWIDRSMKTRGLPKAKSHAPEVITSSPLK
Chain of Coagulation Factor Xa, from uman plasma (P00742 41-179 limits assumed): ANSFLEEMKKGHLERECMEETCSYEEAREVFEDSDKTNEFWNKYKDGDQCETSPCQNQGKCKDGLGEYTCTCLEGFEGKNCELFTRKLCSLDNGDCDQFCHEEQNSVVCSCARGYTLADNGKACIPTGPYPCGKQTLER

Structure (SMILES)	Cytotoxicity LC50/GI50 Hela cells [1] [µM]	Hemolysis at 100 μM % [2] [%]	Trypsin at 100 μM % [3] [%]	Chymase at 100 μM % [4] [%]	IC50 ([5]; Elastase IC50) [µM]	Urokinase at 100 μM % [6] [%]	IC50 ([7]; Cathepsin G IC50) [µM]	Chymotrypsin at 100 μM % [8] [%]	Thrombin at 100 μM % [9] [%]	Tryptase at 100 μM % [10] [%]	FXa at 100 μM % [11] [%]	IC50 ([5]; read-out: Elastase IC50) [µM]	IC50 ([7]; read-out: Cathepsin G IC50) [µM]
C[C@@H](O)[C@@H]1NC(=O)[C@@H]2CSSC[C@H](NC(=O)[C@H](CC3CCCCC3)NC(=O)[C@@H]3CCCN3C(=O)[C@@H]3CCCN3C(=O)[C@H](CC(=O)O)NC(=O)[C@H](CO)NC(=O)[C@H](CCCCN)NC1=O)C(=O)N[C@@H](CO)C(=O)N1CCC[C@@H]1C(=O)N1CCC[C@H]1C(=O)N[C@@H](Cc1ccccc1)C(=O)N2 [Ex. 16] (HELM PEPTIDE1{F.C.T.K.S.D.P.P.[Cha].C.S.[dP].P}$PEPTIDE1,PEPTIDE1,2:R3-10:R3|PEPTIDE1,PEPTIDE1,1:R1-13:R2$$$V2.0)	94	0.1	90.0	12.9	> 100	3.2	0.066	17.9	–	–	–	–	–
CC[C@H](C)[C@@H]1NC(=O)[C@@H]2CCCN2C(=O)[C@H]2CCCN2C(=O)[C@H](CCCNC(=N)N)NC(=O)[C@@H]2CSSC[C@H](NC1=O)C(=O)N[C@@H]([C@@H](C)O)C(=O)N[C@@H](CCCCN)C(=O)N[C@@H](CO)C(=O)N[C@@H](CC(=O)O)C(=O)N1CCC[C@H]1C(=O)N1CCC[C@H]1C(=O)N[C@@H](CCC(N)=O)C(=O)N2 [Ex. 17] (HELM PEPTIDE1{I.C.T.K.S.D.P.P.Q.C.R.[dP].P}$PEPTIDE1,PEPTIDE1,2:R3-10:R3|PEPTIDE1,PEPTIDE1,1:R1-13:R2$$$V2.0)	94	0.1	90.0	27.6	> 100	–	0.055	16	0	90.4	–	–	–
CC[C@H](C)[C@@H]1NC(=O)[C@@H]2CCCN2C(=O)[C@H]2CCCN2C(=O)[C@H](CCCNC(=N)N)NC(=O)[C@@H]2CSSC[C@H](NC1=O)C(=O)N[C@@H]([C@@H](C)O)C(=O)N[C@@H](CCCCN)C(=O)N[C@@H](CO)C(=O)N[C@@H](CC(=O)O)C(=O)N1CCC[C@H]1C(=O)N1CCC[C@H]1C(=O)N[C@@H](Cc1ccc(O)cc1)C(=O)N2 [Ex. 18] (HELM PEPTIDE1{I.C.T.K.S.D.P.P.Y.C.R.[dP].P}$PEPTIDE1,PEPTIDE1,2:R3-10:R3|PEPTIDE1,PEPTIDE1,1:R1-13:R2$$$V2.0)	100	0	84	32.5	> 100	–	0.047	25	0	88.3	–	–	–
CC[C@H](C)[C@@H]1NC(=O)[C@@H]2CCCN2C(=O)[C@H]2CCCN2C(=O)[C@H](CCCNC(=N)N)NC(=O)[C@@H]2CSSC[C@H](NC1=O)C(=O)N[C@@H]([C@@H](C)O)C(=O)N[C@@H](CCCCN)C(=O)N[C@@H](CO)C(=O)N[C@@H](CC(=O)O)C(=O)N1CCC[C@H]1C(=O)N1CCC[C@H]1C(=O)N[C@@H](CC1CCCCC1)C(=O)N2 [Ex. 20] (HELM PEPTIDE1{I.C.T.K.S.D.P.P.[Cha].C.R.[dP].P}$PEPTIDE1,PEPTIDE1,2:R3-10:R3|PEPTIDE1,PEPTIDE1,1:R1-13:R2$$$V2.0)	100	0	97.0	44.1	> 100	6.7	0.048	0	28	–	25	–	–
CC[C@H](C)[C@@H]1NC(=O)[C@@H]2CCCN2C(=O)[C@@H]2CCCN2C(=O)[C@H](CC(=O)O)NC(=O)[C@H](CO)NC(=O)[C@H](CCCCN)NC(=O)[C@H]([C@@H](C)O)NC(=O)[C@@H]2CSSC[C@H](NC1=O)C(=O)N[C@@H](Cc1ccc(O)cc1)C(=O)N1CCC[C@@H]1C(=O)N1CCC[C@H]1C(=O)N[C@@H](CC1CCCCC1)C(=O)N2 [Ex. 36] (HELM PEPTIDE1{[Cha].C.T.K.S.D.P.P.I.C.Y.[dP].P}$PEPTIDE1,PEPTIDE1,2:R3-10:R3|PEPTIDE1,PEPTIDE1,1:R1-13:R2$$$V2.0)	83	0	–	–	–	0	0.041	–	–	73.3	–	–	–
CC[C@H](C)[C@@H]1NC(=O)[C@@H]2CCCN2C(=O)[C@@H]2CCCN2C(=O)[C@H](CC(=O)O)NC(=O)[C@H](CO)NC(=O)[C@H](CCCCN)NC(=O)[C@H]([C@@H](C)O)NC(=O)[C@@H]2CSSC[C@H](NC1=O)C(=O)N[C@@H](CC(N)=O)C(=O)N1CCC[C@@H]1C(=O)N1CCC[C@H]1C(=O)N[C@@H](C1CCCCC1)C(=O)N2 [Ex. 37] (HELM PEPTIDE1{[O=C([C@@H](N[*:1])C1CCCCC1)[*:2]].C.T.K.S.D.P.P.I.C.N.[dP].P}$PEPTIDE1,PEPTIDE1,2:R3-10:R3|PEPTIDE1,PEPTIDE1,1:R1-13:R2$$$V2.0)	92	0.1	–	–	–	5	0.035	–	–	56	–	–	–
CCCC[C@@H]1NC(=O)[C@@H]2CCCN2C(=O)[C@H]2CCCN2C(=O)[C@H]([C@@H](C)O)NC(=O)[C@@H]2CSSC[C@H](NC1=O)C(=O)N[C@@H]([C@@H](C)O)C(=O)N[C@@H](CCCCN)C(=O)N[C@@H](CO)C(=O)N[C@@H](CC(=O)O)C(=O)N1CCC[C@H]1C(=O)N1CCC[C@H]1C(=O)N[C@@H]([C@@H](C)CC)C(=O)N2 [Ex. 42] (HELM PEPTIDE1{[Nle].C.T.K.S.D.P.P.I.C.T.[dP].P}$PEPTIDE1,PEPTIDE1,2:R3-10:R3|PEPTIDE1,PEPTIDE1,1:R1-13:R2$$$V2.0)	87	0	–	–	–	7	0.046	–	–	0	–	–	–
CCCC[C@@H]1NC(=O)[C@H]([C@@H](C)O)NC(=O)[C@@H]2CSSC[C@H](NC(=O)[C@H]([C@@H](C)CC)NC(=O)[C@@H]3CCCN3C(=O)[C@@H]3CCCN3C(=O)[C@H](CC(=O)O)NC(=O)[C@H](CO)NC1=O)C(=O)N[C@@H](CCCNC(=N)N)C(=O)N1CCC[C@@H]1C(=O)N1CCC[C@H]1C(=O)N[C@@H]([C@@H](C)CC)C(=O)N2 [Ex. 59] (HELM PEPTIDE1{I.C.T.[Nle].S.D.P.P.I.C.R.[dP].P}$PEPTIDE1,PEPTIDE1,2:R3-10:R3|PEPTIDE1,PEPTIDE1,1:R1-13:R2$$$V2.0)	8	0	84	98.8	–	5.7	–	0	–	3.8	–	> 100	0.055
C[C@@H](O)[C@@H]1NC(=O)[C@@H]2CSSC[C@H](NC(=O)[C@H](Cc3ccc(O)cc3)NC(=O)[C@@H]3CCCN3C(=O)[C@@H]3CCCN3C(=O)[C@H](CC(=O)O)NC(=O)[C@H](CO)NC(=O)[C@H](CCCCN)NC1=O)C(=O)N[C@@H](Cc1ccc(O)cc1)C(=O)N1CCC[C@@H]1C(=O)N1CCC[C@H]1C(=O)N[C@@H](C1CCCCC1)C(=O)N2 [Ex. 65] (HELM PEPTIDE1{[O=C([C@@H](N[*:1])C1CCCCC1)[*:2]].C.T.K.S.D.P.P.Y.C.Y.[dP].P}$PEPTIDE1,PEPTIDE1,2:R3-10:R3|PEPTIDE1,PEPTIDE1,1:R1-13:R2$$$V2.0)	84	0	–	–	–	1	0.047	–	–	57	–	–	–
